The source of these data is article PMC6541974, “Rho-Kinase II Inhibitory Potential of Eurycoma longifolia New Isolate for the Management of Erectile Dysfunction” (Evidence-based Complementary and Alternative Medicine : eCAM, 2019).

Like-named read-outs stand apart in the source and are kept apart here.

In one experiment the test system is aromatase enzyme. The arrangement: method as in PMID 23810842. Conditions: Leydig cells, transformation of testosterone to estrogen; cited from earlier work.
A further experiment addresses T1, ROCK-II (Homo sapiens, UniProt O75116).
T1 construct: purchased Promega, USA
Description: ROCK-II inhibition assay (ADP-Glo Kinase Assay, ROCK2 Kinase assay). In kind it is biochemical. Conditions: for inhibition at 0.01 µg/mL / inhibition at 0.1 µg/mL / inhibition at 1 µg/mL / inhibition at 10 µg/mL: read-out: % of inhibition of ROCK-II ± SD. The method, then:
A vehicle control for 5% DMSO was used in the assay to check the interference. Standard curve for ROCK-II enzyme was done (Figure 2). Serial dilution and IC50 of the AE was performed in triplicate.
The assay was repeated as mentioned in Section 2.3 on the AE fractions and the isolates T1-T8.
The assay performance measure was used to validate the screening assay quality through calculation of Z-factor according to methodology of Zhang et al., 1999 [18].
Enzyme inhibition by tested samples is expressed as mean ± SD and analyzed using Prism program version 6 (GraphPad Software, Inc., San Diego CA); comparisons among tested samples were carried out using one-way analysis of variance (ANOVA) followed by Bonferroni's multiple comparisons test. P ‹ 0.05 was considered significant.

The subject of a further experiment is phosphodiesterase. The arrangement: method as in PMID 23810842. Conditions: high concentration; cited from earlier work.
Another experiment has as its system testosterone production. The arrangement: method as in PMID 26978330. Conditions: cited from earlier work.
[1] abbreviates: mean ± SD, triplicates, read-out: IC50 (converted).

T1 sequence (O75116 whole entry): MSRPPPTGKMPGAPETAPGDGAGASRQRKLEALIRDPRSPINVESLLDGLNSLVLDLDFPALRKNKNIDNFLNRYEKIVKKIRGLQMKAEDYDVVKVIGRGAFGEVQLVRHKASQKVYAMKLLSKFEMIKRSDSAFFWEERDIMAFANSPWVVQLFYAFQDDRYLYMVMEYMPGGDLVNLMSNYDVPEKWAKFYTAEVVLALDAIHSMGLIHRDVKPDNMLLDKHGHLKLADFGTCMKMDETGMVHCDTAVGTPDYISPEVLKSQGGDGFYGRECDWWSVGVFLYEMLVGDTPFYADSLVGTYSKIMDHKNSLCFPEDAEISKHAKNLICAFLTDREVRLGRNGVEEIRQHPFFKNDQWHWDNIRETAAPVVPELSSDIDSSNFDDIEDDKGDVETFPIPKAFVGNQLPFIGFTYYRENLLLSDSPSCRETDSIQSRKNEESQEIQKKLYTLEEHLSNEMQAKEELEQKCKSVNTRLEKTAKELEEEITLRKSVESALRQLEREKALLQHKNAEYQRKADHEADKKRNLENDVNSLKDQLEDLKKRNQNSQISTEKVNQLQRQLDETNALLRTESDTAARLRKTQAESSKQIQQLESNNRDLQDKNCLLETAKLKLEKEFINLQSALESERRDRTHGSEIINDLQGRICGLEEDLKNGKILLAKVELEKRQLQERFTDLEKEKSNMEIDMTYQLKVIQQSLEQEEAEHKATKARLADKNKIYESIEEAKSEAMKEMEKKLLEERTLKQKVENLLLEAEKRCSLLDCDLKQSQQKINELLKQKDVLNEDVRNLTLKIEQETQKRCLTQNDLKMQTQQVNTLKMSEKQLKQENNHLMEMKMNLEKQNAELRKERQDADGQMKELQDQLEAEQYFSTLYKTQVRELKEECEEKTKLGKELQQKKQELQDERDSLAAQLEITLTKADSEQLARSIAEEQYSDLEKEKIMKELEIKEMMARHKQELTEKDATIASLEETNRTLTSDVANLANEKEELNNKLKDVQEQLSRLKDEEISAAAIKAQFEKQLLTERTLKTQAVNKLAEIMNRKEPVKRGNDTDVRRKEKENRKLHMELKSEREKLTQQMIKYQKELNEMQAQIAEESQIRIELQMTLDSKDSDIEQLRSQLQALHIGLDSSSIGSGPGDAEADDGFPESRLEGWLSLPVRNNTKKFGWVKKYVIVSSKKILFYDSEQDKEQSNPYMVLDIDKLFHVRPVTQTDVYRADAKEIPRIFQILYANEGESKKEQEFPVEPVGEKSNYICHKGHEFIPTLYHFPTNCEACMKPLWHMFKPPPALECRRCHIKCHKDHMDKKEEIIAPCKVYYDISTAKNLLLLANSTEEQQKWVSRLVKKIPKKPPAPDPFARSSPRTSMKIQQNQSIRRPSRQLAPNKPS

On to eurycomanone [Compound T6], for which the aromatase enzyme inhibition entry in the experiment on aromatase enzyme is on record as “aromatase enzyme inhibition”. For the same compound, the “% of inhibition of ROCK-II ± SD” value at ROCK-II (concentration 0.01 µg/ml) is given as 5.4 ± 3.74%; at ROCK-II (concentration 0.1 µg/ml), 26.4 ± 2.61∗ %; on ROCK-II (concentration 1 µg/ml), 57.1 ± 0.56∗ %; on ROCK-II (concentration 10 µg/ml) it was 78.3 ± 0.38∗ %. Also, the concentration for half-maximal inhibition (IC50) at ROCK-II (mean ± SD, triplicates) was 677 ± 51.1∗ ng/ml. The effect on phosphodiesterase entry in the experiment on phosphodiesterase is recorded as “inhibitory effect”. In addition, the testosterone production entry in the experiment on testosterone production is listed as “induce testosterone production”.
Consider `C=C1C(O)C2(O)OCC34C(CC5C(C)=CC(OC6OC(CO)C(O)C(O)C6O)C(O)C5(C)C23)OC(=O)C(O)C14O` [Compound T8, eurycomanol-2-O-β-D-glycopyranoside], for which, on ROCK-II, the half-inhibitory concentration (IC50) was 2.52 µM, the inhibition at 0.01 µg/mL came to 4.06 ± 3.8%, the inhibition at 0.1 µg/mL is 17 ± 0.77% and the inhibition at 1 µg/mL is 46.5 ± 1.62%. In addition, the inhibition at 10 µg/mL on ROCK-II came to 71.4 ± 2.54%.
As for `CC[C@H](/C=C/[C@@H](C)[C@H]1CC[C@H]2[C@@H]3CC=C4C[C@@H](O)CC[C@]4(C)[C@H]3CC[C@]12C)C(C)C` [Compound T1, stigmasterol], the 50% inhibitory concentration (IC50) on ROCK-II (setting [1]) is 14.9 µM. Also, on ROCK-II, the inhibition at 0.01 µg/mL is 2.78 ± 1.84%, the inhibition at 0.1 µg/mL is 13.3 ± 2.26%, the inhibition at 1 µg/mL was 27.4 ± 2.47% and the inhibition at 10 µg/mL stood at 60.3 ± 0.14%.
Turning to `CC1=CC(=O)[C@@H](O)[C@@]2(C)[C@H]1CC(=O)[C@@]1(C)[C@H]3C(=O)O[C@H]([C@@H]3C)[C@H](O)[C@@H]12` [Compound T4, eurycomalactone], on ROCK-II, the IC50 was 2.28 µM, the inhibition at 0.01 µg/mL was found to be 6.13 ± 0.44%, the inhibition at 0.1 µg/mL stood at 25.7 ± 2.47% and the inhibition at 1 µg/mL was 54 ± 0.42%. For the same compound, at ROCK-II, the inhibition at 10 µg/mL is 76.2 ± 3.53%.
As to `COc1cc(/C=C/C=O)ccc1O` [Compound T2, trans-coniferyl aldehyde], the inhibition at 0.01 µg/mL on ROCK-II (concentration 0.01 µg/ml) amounted to 10.6 ± 2.94%. Moreover, the inhibition at 0.1 µg/mL on ROCK-II (concentration 0.1 µg/ml) was 33.2 ± 1.55%. Besides, on ROCK-II (concentration 1 µg/ml), the inhibition at 1 µg/mL was determined as 68.5 ± 0.35%. Moreover, the inhibition at 10 µg/mL on ROCK-II (concentration 10 µg/ml) is 82.1 ± 0.63%. The IC50 on ROCK-II (setting [1]) was 2.01 µM.
As to `COc1cc2ccc(=O)oc2cc1O` [Compound T3, scopoletin], the inhibition at 0.01 µg/mL at ROCK-II (concentration 0.01 µg/ml) amounted to 10.1 ± 3.34%. The inhibition at 0.1 µg/mL on ROCK-II (concentration 0.1 µg/ml) came to 25 ± 2.47%. The inhibition at 1 µg/mL at ROCK-II (concentration 1 µg/ml) worked out at 66.15 ± 0.07%. The inhibition at 10 µg/mL at ROCK-II (concentration 10 µg/ml) worked out at 77.1 ± 0.11%. The IC50 at ROCK-II (setting [1]) is 2.73 µM.
With `C[C@@H](N)[C@H]1CC[C@H](C(=O)Nc2ccncc2)CC1.Cl.Cl` (relative stereo) [Compound Y-27632, (+)-(R)-trans-4-(1-aminoethyl)-N-(4-pyridyl)cyclohexanecarboxamide dihydrochloride, reference compound], the “% of inhibition of ROCK-II ± SD” value at ROCK-II (concentration 0.01 µg/ml) was 22.5 ± 1.27∗ %; at ROCK-II (concentration 0.1 µg/ml), 42.15 ± 2.19∗ %; on ROCK-II (concentration 1 µg/ml), 68.15 ± 2.75∗ %; at ROCK-II (concentration 10 µg/ml), 89.9± 0.42∗ %. For the same compound, the “inhibition for ROCK-II activity” value at ROCK-II (concentrations 1-10 μg/ml) was 68.15-89.9%.
